According to patent US10301288B2, “Kinase inhibitors” (Topivert Pharma Limited, priority 2013, dated 2019):
Where two headings read alike, the source gives them in different places.

Legend:
Syk = Syk (Homo sapiens (Human), UniProt P43405); assay: Syk enzyme inhibition (FRET); type: biochemical
How it was run: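 Z-LYTE FRET peptide assay: c-Src (3000 ng/mL) or Syk (2000 ng/mL) preincubated 2 h at room temperature with compound (4–0.004 μg/mL working solutions). Reaction was 1 h with peptide (8 μM solution) and ATP (800 μM c-Src, 60 μM Syk solutions), followed by 1 h protease development. Phosphorylation was read as the coumarin/fluorescein emission ratio.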

PBMCs = assay: (b) LPS-induced TNFα/IL-8 release in PBMC cells; type: cell-based; conditions: Homo sapiens
[1] = Plasma pharmacokinetics in beagle dogs; type: in vivo, male beagle dogs; conditions: Dog
Experimental: Blood samples (approximately 1.5 mL) were collected from jugular vein such that the samples were obtained at pre-dose, 0.25, 0.5, 1, 2, 4, 6, 8, and 24 hr (p.o.) and pre-dose, 0.08, 0.25, 0.5, 1, 2, 4, 8, 12, 24 and 32 hr (i.v.) post dose. The blood samples were collected from a set of three dogs at each time point in labelled micro centrifuge tube containing K2EDTA as anticoagulant. Plasma samples were separated by centrifugation at 2500 g for 10 min of whole blood and stored below −70° C. until bioanalysis. All samples were processed for analysis by protein precipitation using acetonitrile and analyzed with LC-MS/MS method (LLOQ=0.50 ng/mL). Pharmacokinetic parameters were calculated using the non-compartmental analysis tool of Phoenix WinNonlin® (Version 6.3).

[2] = Cryopreserved hepatocyte stability, Cynomolgus macaque; type: in vitro ADME; conditions: pooled cryopreserved hepatocytes, read-out: Mean intrinsic clearance
Experimental: Formulae Clint(tissue clearance) mL/min/kg=[0.693/t½ (min)]×[1/microsomal protein concentration mg/mL]×[mg microsomes/g liver]×[g liver/kg body weight] […] The incubations were performed at 37° C. with 100 μL, samples taken from the incubation, at 0, 10, 20, 45 and 90 minutes, and reactions terminated by addition of 100 μL of acetonitrile containing carbamazepine as analytical internal standard. […] Half-life values were calculated from the relationship T1/2 (min)=−0.693/λ • where λ was the slope of the Ln concentration vs time curve. • Standard compounds testosterone, midazolam and 4-methylumbelliferone are included in the assay design.
Clint(Tissue Clearance) mL/min/kg=[0.693/t½(min)]×[1/hepatocyte concentration (million cells/mL)]×[million cells/g liver]×[g liver/kg body weight] Clint(Hepatic clearance) mL/min/kg=hepatic blood flow×Clint/(hepatic blood flow+Clint) Hepatic extraction ratio(Eh)=Clint(Hepatic clearance) mL/min/kg/hepatic blood flow (mL/min/kg)

CYP3A4 = CYP3A4 (Homo sapiens (Human), UniProt P08684); assay: CYP450 time-dependent inhibition, CYP3A4; type: in vitro ADME
Experimental: CYP450 time-dependent inhibition (TDI) assays were performed with test compound at six test concentrations, 0.062 μM to 15 μM (n=2). The test compounds was pre-incubated for 30 minutes with pooled human hepatic microsomes in 0.1 M Tris buffer, pH 7.4, at 37° C. in the presence of cofactor NADPH. A parallel series of incubations (n=2) were prepared with no pre-incubation. Probe substrates were then added (with additional cofactor) and further incubated for the times specified. Concentrations of probe substrates used in the incubations have been optimised to maintain first order reaction conditions.
Reactions were terminated with acetonitrile containing analytical internal standard (carbamazepine), samples then centrifuged to remove microsomal protein and analysed using optimised LC/MS-MS conditions. The MS data were normalised to internal standard and compared to the appropriate solvent controls to determine the amount of metabolite formed from the probe substrate relative to the “uninhibited” controls. The results are quoted as % inhibition.
Variation in probe turnover between plate wells means that inhibition values recorded below 10-15% may not be significant.

hERG = hERG (Homo sapiens (Human), UniProt Q12809); assay: hERG inhibition, IonWorks patch clamp; type: cell-based
Experimental: Eight-point concentration curves were generated using serial 3-fold dilutions from the maximum final assay concentration (3 μM). Electrophysiological recordings were made from a Chinese Hamster Lung cell line stably expressing the full length hERG channel Single cell ionic currents were measured in the perforated patch clamp configuration (100 μg/mL) amphotericin) at room temperature (21-23° C.) using an IonWorks Quattro instrument. The internal solution contained (mM): 140 KCl, 1 MgCl2, 1 EGTA, 20 HEPES and was buffered to pH 7.3. The external solution contained (mM):138 NaCl, 2.7 KCl, 0.9 CaCl2, 0.5 MgCl2, 8 Na2HPO4, 1.5 KH2PO4, also buffered to pH 7.3. Cells were clamped at a holding potential of −70 mV for 30 s and then stepped to +40 mV for 1 s. This was followed by a hyperpolarising step of 1 s to −30 mV to evoke the hERG tail current. This sequence was repeated 5 times at a frequency of 0.25 Hz. Currents were measured from the tail step at the 5th pulse, and referenced to the holding current. Compounds were then incubated for 6-7 minutes prior to a second measurement of the hERG signal using an identical pulse train. Eight-point concentration curves were generated using serial 3-fold dilutions from the maximum final assay concentration (3 μM).

[3] = male, beagle, plasma, 0.05 mg/kg intravenous

CYP3A4, sequence (P08684 whole entry): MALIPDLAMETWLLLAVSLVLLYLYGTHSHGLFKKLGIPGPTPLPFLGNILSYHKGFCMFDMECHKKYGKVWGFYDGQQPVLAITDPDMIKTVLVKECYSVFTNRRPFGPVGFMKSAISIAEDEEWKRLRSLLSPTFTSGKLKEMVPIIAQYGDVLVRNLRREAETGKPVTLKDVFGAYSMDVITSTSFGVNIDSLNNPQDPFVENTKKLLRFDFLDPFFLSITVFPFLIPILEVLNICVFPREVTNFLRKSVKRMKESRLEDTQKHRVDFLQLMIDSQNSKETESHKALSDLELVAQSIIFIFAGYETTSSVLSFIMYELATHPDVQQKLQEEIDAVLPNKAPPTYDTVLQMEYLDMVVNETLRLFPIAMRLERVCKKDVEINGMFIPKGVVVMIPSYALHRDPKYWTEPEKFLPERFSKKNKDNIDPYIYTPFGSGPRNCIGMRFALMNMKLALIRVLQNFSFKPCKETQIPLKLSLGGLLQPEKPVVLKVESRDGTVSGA
hERG, sequence (Q12809 whole entry): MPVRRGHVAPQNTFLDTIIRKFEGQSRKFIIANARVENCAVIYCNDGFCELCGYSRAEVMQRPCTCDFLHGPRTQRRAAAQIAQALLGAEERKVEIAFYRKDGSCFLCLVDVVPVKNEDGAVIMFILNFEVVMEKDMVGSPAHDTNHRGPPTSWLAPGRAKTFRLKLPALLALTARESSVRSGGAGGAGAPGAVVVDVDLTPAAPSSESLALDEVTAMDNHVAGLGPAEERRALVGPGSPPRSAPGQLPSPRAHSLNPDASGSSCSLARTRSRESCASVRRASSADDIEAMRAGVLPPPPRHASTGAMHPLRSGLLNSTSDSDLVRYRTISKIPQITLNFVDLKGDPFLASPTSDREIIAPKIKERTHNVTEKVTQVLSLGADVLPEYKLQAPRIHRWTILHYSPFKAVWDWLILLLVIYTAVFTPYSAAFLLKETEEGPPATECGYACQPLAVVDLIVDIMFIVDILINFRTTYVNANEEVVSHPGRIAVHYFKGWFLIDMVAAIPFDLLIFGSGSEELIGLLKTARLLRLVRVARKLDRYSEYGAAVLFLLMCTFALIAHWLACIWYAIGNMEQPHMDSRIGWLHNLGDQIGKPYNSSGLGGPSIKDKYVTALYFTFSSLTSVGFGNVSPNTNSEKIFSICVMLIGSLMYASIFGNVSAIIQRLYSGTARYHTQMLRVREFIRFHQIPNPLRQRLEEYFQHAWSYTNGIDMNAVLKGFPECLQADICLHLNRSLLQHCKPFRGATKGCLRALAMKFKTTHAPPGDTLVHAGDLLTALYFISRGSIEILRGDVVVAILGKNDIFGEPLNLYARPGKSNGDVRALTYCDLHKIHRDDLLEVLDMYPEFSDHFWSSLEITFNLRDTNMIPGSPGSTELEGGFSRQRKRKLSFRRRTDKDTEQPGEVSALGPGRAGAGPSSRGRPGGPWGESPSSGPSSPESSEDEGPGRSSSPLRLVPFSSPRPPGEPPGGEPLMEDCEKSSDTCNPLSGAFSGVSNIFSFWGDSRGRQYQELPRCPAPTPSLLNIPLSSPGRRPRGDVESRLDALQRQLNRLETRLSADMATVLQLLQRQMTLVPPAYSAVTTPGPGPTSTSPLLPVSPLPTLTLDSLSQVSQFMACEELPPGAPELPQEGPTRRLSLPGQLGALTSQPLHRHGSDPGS

IC50 (Syk): 50 nM
Fpo ([1]; 1 mg/kg p.o., Plasma): 0%
AUC(0-inf) [1, 3]: 223 ± 92 ng·h/mL
AUC(0-t) [1, 3]: 218 ± 90 ng·h/mL
C0 [1, 3]: 1370 ng/mL
Vd [1, 3]: 0.2 ± 0.1 L/kg
clearance [1, 3]: 4.1 ± 1.4 mL/min/kg
half-life [1, 3]: 114 ± 24 min
hepatocyte CLint at 0.1 μM [2]: 43 µL/min/1e6 cells
IC50 (CYP3A4; CYP3A4, 0 min preincubation): > 15 µM
IC50 (CYP3A4; CYP3A4, 30 min preincubation): 7.7 µM
inhibition at 0 min, 15 µM (CYP3A4; human, pooled human liver microsomes, pH 7.4, CYP3A4, 0 min preincubation, 15 μM, read-out: 15 μM % Inh): 2%
inhibition at 30 min, 15 µM (CYP3A4; human, pooled human liver microsomes, pH 7.4, CYP3A4, 30 min preincubation, 15 μM, read-out: 15 μM % Inh): 52%
Structure (SMILES): C#Cc1cc(Nc2nccc(Oc3ccc(NC(=O)Nc4cc(C(C)(C)C)nn4-c4ccc(C)cc4)c4ccccc34)n2)cc(C(=O)NCCOCCOCCOC)c1 [Example 2, 3-((4-((4-(3-(3-(tert-Butyl)-1-(p-tolyl)-1H-pyrazol-5-yl)ureido)naphthalen-1-yl)oxy)pyrimidin-2-yl)amino)-5-ethynyl-N-(2-(2-(2-methoxyethoxy)ethoxy)ethyl)-benzamide]
IC50 (PBMCs; read-out: IC50 for Inhibition of Cytokine Release, IL-8): 2 nM
IC50 (PBMCs; read-out: IC50 for Inhibition of Cytokine Release, TNFα): 0.7 nM
IC50 (hERG): > 3 µM
inhibition at 3 µM (hERG; human, pH 7.3, 3 μM, read-out: inhibition of the hERG channel): 0%
